Values after ≈ are worked out from the molar mass of the structure shown.

Common to all, as to type: cell-based
Assay [1] has as its system Streptococcus mutans NBRC13955. Briefly: Antimicrobial test on oral bacteria, bactericidal effect test. The note with it: for bactericidal action on Streptococcus mutans cells: one minute. The method, then: Antimicrobial Test on Oral Bacteria
1. Antimicrobial Action on Streptococcus mutans
The antimicrobial effect of two types of test substances (Compound 3 and Compound 7) on Streptococcus mutans was evaluated.
1) Preparation of Test Microbe
A microbe strain (Streptococcus mutans NBRC13955) cryopreserved was cultured in TSA medium at 36±1° C. for 18 to 24 hours. The cultured microbial cells were transferred to a fresh TSA medium and cultured at 36±1° C. for 18 to 24 hours. The grown colonies were scraped out and suspended in sterile ion-exchange water to prepare a solution having about 10^7 CFU/mL, which was used as a test microbe solution.
2) Preparation of Test Solution […]
3) Bactericidal Effect Test
From individual test solutions previously kept at 25±2° C., an aliquot (10 mL) was dispensed to centrifuge tubes of 50 mL in volume. To each of the centrifuge tubes, the test microbe solution (0.1 mL) was inoculated, mixed and allowed to react. After a predetermined reaction time, the resultant test solution (1 mL) was taken out. To this, 9 mL of a deactivator (SCDLP medium (manufactured by Eiken Chemical Co., Ltd.), which was confirmed as effective deactivator), was added to inactivate the bactericidal component of the test solution. The number of microbial cells in the resultant sample solution was determined. The solution obtained by carrying out the same procedure except that a sterile physiological saline was used in place of the test solution, was used as a control.
4) Determination of the Number of Microbial Cells
Using the sample solution as a stock solution, serial dilution was performed with a sterile physiological saline to obtain 10-fold serial dilutions. 1 mL of the sample solution or each of the dilutions was aseptically transferred to a petri dish, mixed with TSA medium (20 mL), solidified and cultured at 36±2° C. for 48 hours. After the culture, colonies grown on the medium were counted to obtain the number of test microbe cells per test solution (1 mL) (lower limit of quantification: 10 CFU/test solution (1 mL)).

Assay [2] deals with Staphylococcus aureus MRSAIID 1677 (methicillin-resistant staphylococcus aureus; MRSA). The assay can be described thus: Antimicrobial test, minimum inhibitory concentration (MIC), MRSA. Conditions: 36±1° C., 24 hours. The method, then:
Antimicrobial/Antifungal Test
Measurement of the Minimum Inhibitory Concentration (MIC) of a Test Substance
The minimum inhibitory concentration (MIC) of test substances (Compound 3, Compound 7) on a microorganism was measured.
1) Test Microbe (a) Staphylococcus aureus MRSAIID 1677 (methicillin-resistant staphylococcus aureus; MRSA) (b) Trichophyton mentagrophytes NBRC5466 (trichophyton)
2) Preparation of Microbe Solution for Inoculation
Test microbe (a): A strain cryopreserved was smeared on TSA medium and cultured at 36±1° C. for 24 hours. Grown colonies were scraped out and suspended in a test organism preparation solution, filtered with absorbent cotton. The number of cells was controlled to be about 10^6-7 CFU/mL. The test microbe solution prepared was serially diluted by 10-fold and cultured at 36±1° C. for 48 hours and the microbe cells were counted.
3) Serial Dilution of Test Substance
Two-fold serial dilutions of a test substance were prepared in the following procedure. To a test substance (1 mg), a medium (5 mL) for measuring the sensitivity of each microbe strains was added to obtain a stock solution of 200 μg/mL. […]
A test microbe solution (5 μL) was added dropwise to individual wells of the microplate. […] After culture, whether the microbe proliferated or not was determined by the naked eye. […]

For assay [3], the system named is Salmonella typhimurium TA98 strain and TA100 strain. The assay can be described thus: Growth inhibitory action and bactericidal action on salmonella (preincubation method, with and without S9 mix). The note with it: TA98 and TA100, presence or absence of S9 mix; for Bactericidal action: lowest concentration at which all bacterial cells were killed; for Growth inhibition: lowest concentration at which growth was inhibited. The procedure:
Growth inhibitory action and bactericidal action on salmonella
1) Preparation of Test-Substance Solution
Test substances (compounds listed in Table 1) each were prepared by dissolving it in DMSO when used. Preparation was made in such a manner that the highest dose became 5000 μg/plate and the dose lower than this was prepared by a dilution method. In the table, reference numerals of individual compounds correspond to the numbers of the individual compounds synthesized in the above Examples (the same applies to the following Tables).
Salmonella typhimurium TA98 strain and TA100 strain were used.
These were supplied by Japan Bioassay Research Center, proliferated and examined for genetic properties and other properties in accordance with customary methods, in advance. After these strains were confirmed to have these properties, they are cryopreserved (−80° C.) with a DMSO-added medium; and thawed for use in each test.
3) A cryopreserved strain was thawed and inoculated in a 2.5% aqueous nutrient broth (OXOID No. 2) solution and cultured while shaking at 37° C. for 7 hours to obtain a cell suspension, which was subjected to tests.
A minimum glucose agar plate medium (Vital Media AMT-S, manufactured by Kyokuto Pharmaceutical Industrial Co., Ltd.) was used.
The top agar was prepared when used by blending an aqueous solution of 0.5 mM L-histidine and 0.5 mM D-(+)-biotin with an aqueous solution prepared by adding Bacto Agar (Difco) (0.6%) and sodium chloride (0.5%).
S9 was purchased from Kikkoman; whereas a cofactor was previously prepared in accordance with a method known in the art. They were mixed in a customary method to prepare S9 mix.
Using a test system containing S9 mix and a test system containing no S9 mix, a test was carried out in accordance with a preincubation method. As the dose selection, the highest dose was specified as […], which was then serially diluted in a common ratio of 2 to prepare a total of 15 doses to be used in the test.
To a sterile test tube, a test solution (0.1 mL) and 0.1 M Na-phosphate buffer or S9 mix (0.5 mL) and a cell suspension (0.1 mL) were sequentially dispensed. Pre-incubation was carried out at 37° C. for 20 minutes while shaking. After completion of the pre-incubation, top agar (2 mL) kept warm at 45° C. was added, mixed and placed on a minimum glucose agar plate medium. After solidification, the plate was turned upside down and cultured at 37° C. for 48 hours.
After completion of the culture, the state of microbial growth was observed by a stereomicroscope. After a precipitate on the plate was observed, revertant colonies were counted by the naked eye or a colony counter.
7) Criteria for Determination
Growth of both TA98 and TA100 strains was examined in the presence or absence of S9 mix. Among the resultant concentrations at which growth was inhibited, the lowest concentration was specified as the growth inhibitory concentration. Similarly, the bactericidal concentration was specified as the lowest concentration at which all bacterial cells were killed.

The term MIC denotes the lowest concentration found to suppress growth. Low readings indicate greater potency, high ones weaker potency. Take `O=C(Nc1ccc(S(F)(F)(F)(F)F)cc1)c1cc(O)c(O)c(O)c1` [Compound 3, 4-(3,4,5-trihydroxybenzoylamino)pentafluorosulfanylbenzene]: in assay [1] (0.01 w/v %, 5 minutes), the “number of the cells reduced (fraction)” value is given as 1/10. For the same compound, the “number of test microbe cells” value in assay [1] (0.01 w/v %, working time 1 min) was 380,000 CFU/test solution (1 mL); in assay [1] (0.01 w/v %, working time 5 min), 34,000 CFU/test solution (1 mL); in assay [1] (0.05 w/v %, working time 1 min), <10 CFU/test solution (1 mL); in assay [1] (0.05 w/v %, working time 5 min) it was <10 CFU/test solution (1 mL). Also, the “bactericidal action on Streptococcus mutans cells” value in assay [1] (0.05 w/v %) was “almost completely killed”. In addition, in assay [2], the minimal inhibitory concentration (MIC) is 6.3 µg/mL (≈ 17 µM). In assay [3], this compound displayed a Bactericidal action of 625 μg/plate. The compound further yielded a Growth inhibition in assay [3] of 19.5 μg/plate.

Consider `O=C(Oc1ccc(S(F)(F)(F)(F)F)cc1)c1cc(O)c(O)c(O)c1` [Compound 7, 4-(3,4,5-trihydroxybenzoyloxy)pentafluorosulfanylbenzene], for which the “number of test microbe cells” value in assay [1] (0.001 w/v %, working time 1 min) was 460,000 CFU/test solution (1 mL); in assay [1] (0.001 w/v %, working time 5 min), 280,000 CFU/test solution (1 mL); in assay [1] (0.005 w/v %, working time 1 min), <10 CFU/test solution (1 mL); in assay [1] (0.005 w/v %, working time 5 min), <10 CFU/test solution (1 mL). Besides, in assay [1] (0.005 w/v %), the “bactericidal action on Streptococcus mutans cells” value was “almost completely killed”. The same compound registered a minimal inhibitory concentration (MIC) in assay [2] of 0.8 µg/mL (≈ 2.15 µM). Moreover, the Bactericidal action in assay [3] is 156 μg/plate. The compound also had a Growth inhibition in assay [3] of 19.5 μg/plate.

(Values after patent US9682931B2, “Aryloyl(oxy or amino)pentafluorosulfanylbenzene compound, pharmaceutically acceptable salt thereof, and prodrugs thereof” (UBE INDUSTRIES, LTD., priority 2013, dated 2017).)
